Experimental data reported in US12496298B2, “Natural killer cells” (Imperial College Innovations Limited, priority 2017, dated 2025).

Experiments:
[1] = test system: HPCs; assay: Live cells / toxicity in mouse HPC culture under NK cell-producing conditions; type: cell-based
Procedure: FIG. […] At Day 9, percentage of NK cells was quantified using flow cytometry. (A) Graph showing relative mature mouse NK cell (NK1.1+ CD3−) production when 5 and 10 μM SR8278 were added on different days compared to the ‘No drug’ control. (B) Representative flow cytometry results with percentage of NK cells shown. Addition of 5 μM SR8278 is shown on the top, whereas addition of 10 μM SR8278 is shown on the bottom. […] Results were averaged from two experiments with four repeats each and the error bars represent the mean+SD. Asterisks indicate significant differences from the two annotated results (* is P≤0.01, *** is P≤0.0001 and **** is P≤0.00001) based on Mann-Whitney test.
The HPCs were plated and cultured in 24-well plates at a concentration of 5×10^5 HPCs/well in 1 ml of complete cytokine medium (Dulbecco's modified eagle medium (DMEM) (Sigma Aldrich), 10% FCS, 50 μM β-Mercaptoethanol, 10 ng/ml Flt3-ligand (FIt3L) (R&D Systems), 10 ng/ml IL-7 (R&D Systems), 100 ng/ml stem cell factor (SCF) (R&D Systems) and 1% P/S) for 2 days at 37° C., 5% CO2. […]
Cells to be analysed by flow cytometry were passed through 40 μm cell strainers to remove clumps and washed with PBS buffer, centrifuged at 800 g for 2 minutes and resuspended in 100 μl fluorescent activated cell sorting (FACS) buffer (PBS plus 1% BSA) with appropriate fluorochrome conjugated antibodies at a dilution of 1 in 300. […]

[2] = test system: Id2; assay: RT-qPCR relative expression of Id2 in cultured HPCs; type: cell-based, mouse
Procedure: (§1) FIG. 8: HPCs were cultured with or without 5 μM SR8278 added on Day 2. At Day 3, 4 and 5, cells were harvested in order to quantify their relative […] by RT-qPCR. The graphs show relative expression of (A) E4bp4, (B) Id2 and (C) Eomes normalized to the housekeeping gene, Hprt.
(§2) HPCs isolated from a WT mouse were cultured as previously (FIG. 2) but the cells were harvested and analysed using RT-qPCR on Day 3, 4 and 5. The relative expression of the E4bp4, Id2 and Eomes genes was compared to the housekeeping gene, Hprt. At Day 4, E4bp4, Id2 and Eomes expression was higher in SR8278 treated samples when compared to the ‘No drug’ control (FIG. 8). The increase in E4bp4 expression disappeared at Day 5 but the increase of Id2 expression remained (FIG. 8B). The upregulation of E4bp4 and its downstream targets happens in a matter of hours and only stays high for a defined period of time.
(§3) RNA was extracted using Qiagen RNeasy Micro Kit according to the manufacture's protocol (Qiagen). Centrifugation was done at 8000 g for 15 seconds and the flow through discarded. Briefly, 350 μl of Buffer RLT+10% β-Mercaptoethanol were added to the harvested cells. […] The concentration of RNA in each sample was measured using Nanodrop, and all samples were diluted to the same working concentration. […]

[3] = test system: E4bp4; assay: RT-qPCR relative expression of E4bp4 in cultured HPCs; type: cell-based, mouse
Procedure: as §1, §2, §3

[4] = test system: Eomes; assay: RT-qPCR relative expression of Eomes in cultured HPCs; type: cell-based, mouse; details: 5 μM added Day 2, harvested Day 4
Procedure: as §1, §2, §3

[5] = 5 μM added Day 2, harvested Day 4
[6] = 5 μM added Day 2, harvested Day 5

CCOC(=O)C1Cc2ccccc2CN1C(=O)c1ccc(SC)s1 (stereo not shown) [SR8278, 1,2,3,4-Tetrahydro-2-[[5-(methylthio)-2-thienyl]carbonyl]-3-isoquinolinecarboxylic acid ethyl ester]
toxicity to cells in culture ([1]; 20 μM): toxic and killed most of the cells | numbers of live cells compared to 'No drug' control ([1]; added at Days 0 and 1, 5 and 10 μM): remarkably low | Id2 expression relative to Hprt, compared to 'No drug' control [2, 5]: higher | increase of Id2 expression [2, 6]: remained | E4bp4 expression relative to Hprt, compared to 'No drug' control [3, 5]: higher | increase in E4bp4 expression [3, 6]: disappeared | Eomes expression relative to Hprt, compared to 'No drug' control [4]: higher
